Where “and” joins values, the source holds several entries; their conditions need not be identical. Equal values may be shown once. Read-outs that look alike come from different tables or passages of the source.
Columns and labels:
[1] = pharmacokinetic parameters of injected versus oral sumatriptan (FIG. 2); assay type: in vivo; settings: injected vs oral; injected dose is 3% of the oral dose
From the text: (§1) FIG. 2 is a Table comparing pharmacokinetic and pharmacodynamic parameters of subcutaneously injected and oral sumatriptan.
(§2) FIG. 2 compares pharmacokinetic parameters of injected sumatriptan with oral sumatriptan.

[2] = in vivo; cited from earlier work
migraine [3] = settings: in vivo; cited from earlier work
migraine [4] = assay: pain relief at 2 hours, injected versus oral sumatriptan (FIG. 2); assay type: in vivo; settings: via injection, 107 minutes after maximum plasma concentration
From the text: as §1, §2

migraine [5] = settings: cited from earlier work
[6] = time to peak plasma concentration of triptans (FIG. 3); settings: in vivo

CNS(=O)(=O)Cc1ccc2[nH]cc(CCN(C)C)c2c1 [sumatriptan]
AUC relative to oral dose [1]: about ⅕ | maximum concentration relative to oral dose [1]: approximately half | half life [2]: 2.5 h | pain relief at two hours compared with rizatriptan (migraine [3]): less than that of rizatriptan | pain relief at 2 hours, injected vs oral dose (migraine [4]): better for the injected dose than for the oral dose

O=C(O)Cc1ccccc1Nc1c(Cl)cccc1Cl [diclofenac]
effectiveness (migraine [5]; intramuscular): 70% and 88% | effectiveness (migraine [5]; oral): 44%

CNS(=O)(=O)CCc1ccc2[nH]cc(C3CCN(C)CC3)c2c1 [naratriptan]
half life [2]: 5 to 8 h

CN(C)CCc1c[nH]c2ccc(Cn3cncn3)cc12 [rizatriptan]
half life [2]: 2 to 3 h | time to peak plasma concentration, earlier than sumatriptan and zolmitriptan [6]: ~1 h

CN1CCC[C@@H]1Cc1c[nH]c2ccc(CCS(=O)(=O)c3ccccc3)cc12 [eletriptan]
half life [2]: 4 h

CN(C)CCc1c[nH]c2ccc(C[C@H]3COC(=O)N3)cc12 [zolmitriptan]
half life [2]: 3 h | pain relief at two hours compared with rizatriptan (migraine [3]): less than that of rizatriptan

CN[C@@H]1CCc2[nH]c3ccc(C(N)=O)cc3c2C1 [frovatriptan]
half life [2]: 26 h

CN(C)CCc1c[nH]c2ccc(CS(=O)(=O)N3CCCC3)cc12 [almotriptan]
half life [2]: 3 to 4 h
